For one compound, inhibition results are on record in paper PMC6934184, “Selective DNA-PKcs inhibition extends the therapeutic index of localized radiotherapy and chemotherapy” (The Journal of Clinical Investigation, 2019).

For this assay, the target named is T1, CSNK1G3 (CK1 gamma 3) (Homo sapiens, UniProt Q9Y6M4).
T1 construct: purchased Thermo Fisher Scientific (Life Technologies) SelectScreen
Description: SelectScreen Z'LYTE. Type of assay: biochemical. Summed up:
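Percent values come from Thermo SelectScreen profiling of NU5455, combining activity and binding assays. CSF1R was run in Z'LYTE format at Km app ATP, and CAMK1 in Adapta format with ATP listed at 10.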

T1 sequence (Q9Y6M4 whole entry): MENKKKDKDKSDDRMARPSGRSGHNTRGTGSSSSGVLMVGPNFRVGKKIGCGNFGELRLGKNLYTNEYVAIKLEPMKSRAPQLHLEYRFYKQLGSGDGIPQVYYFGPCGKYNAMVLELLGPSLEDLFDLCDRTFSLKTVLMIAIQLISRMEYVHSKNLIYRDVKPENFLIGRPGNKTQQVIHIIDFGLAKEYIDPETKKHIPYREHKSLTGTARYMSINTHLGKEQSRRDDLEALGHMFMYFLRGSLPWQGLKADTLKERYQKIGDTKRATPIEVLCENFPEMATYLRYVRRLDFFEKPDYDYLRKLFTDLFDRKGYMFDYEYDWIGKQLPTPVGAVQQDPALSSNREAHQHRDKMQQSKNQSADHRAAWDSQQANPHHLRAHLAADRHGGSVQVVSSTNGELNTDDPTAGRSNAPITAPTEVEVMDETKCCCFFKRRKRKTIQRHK

As to `CN(C(=O)CN1CCOCC1)c1ccc2sc3c(-c4cccc5c(=O)cc(N6CC7CCC(C6)O7)oc45)cccc3c2c1` [NU5455], the inhibition (in general, how much of the control response was suppressed) at 1 µM was 4.2%.
